In patent publication US11046688B2, “Inhibitor compounds” (Cancer Research Technology Limited, priority 2012, dated 2021):

The compounds below were run against full length MPS1 (Homo sapiens (Human), UniProt P33981) (assay: Measurement of Inhibition of MPS1 Kinase (Caliper EZ reader, fluorescent labelled peptide H236)). Conditions: full length MPS1 12.5 nM or 3 nM, H236 peptide 5 μM, ATP 10 μM, 60 min at room temperature.
Assay type: biochemical
Description: The reaction was carried out for 60 min at room temperature and stopped by the addition of buffer (10 μl) containing 20 mM EDTA, 0.05% (v/v) Brij-35, in 0.1M HEPES-buffered saline (Free acid, Sigma. UK). The plate was read on a Caliper EZ reader II (Caliper Life Sciences).
The % inhibition of the compounds is calculated relative to the means of selected control wells. […] The % inhibitions at each concentration are then fitted to a 4 parameter logistic fit: y=(a+((b−a)/(1+((c/x^d)))) where a=asym min, b=asym max, c=IC50 and d=hill coefficient

Chain of full length MPS1 (P33981 whole entry): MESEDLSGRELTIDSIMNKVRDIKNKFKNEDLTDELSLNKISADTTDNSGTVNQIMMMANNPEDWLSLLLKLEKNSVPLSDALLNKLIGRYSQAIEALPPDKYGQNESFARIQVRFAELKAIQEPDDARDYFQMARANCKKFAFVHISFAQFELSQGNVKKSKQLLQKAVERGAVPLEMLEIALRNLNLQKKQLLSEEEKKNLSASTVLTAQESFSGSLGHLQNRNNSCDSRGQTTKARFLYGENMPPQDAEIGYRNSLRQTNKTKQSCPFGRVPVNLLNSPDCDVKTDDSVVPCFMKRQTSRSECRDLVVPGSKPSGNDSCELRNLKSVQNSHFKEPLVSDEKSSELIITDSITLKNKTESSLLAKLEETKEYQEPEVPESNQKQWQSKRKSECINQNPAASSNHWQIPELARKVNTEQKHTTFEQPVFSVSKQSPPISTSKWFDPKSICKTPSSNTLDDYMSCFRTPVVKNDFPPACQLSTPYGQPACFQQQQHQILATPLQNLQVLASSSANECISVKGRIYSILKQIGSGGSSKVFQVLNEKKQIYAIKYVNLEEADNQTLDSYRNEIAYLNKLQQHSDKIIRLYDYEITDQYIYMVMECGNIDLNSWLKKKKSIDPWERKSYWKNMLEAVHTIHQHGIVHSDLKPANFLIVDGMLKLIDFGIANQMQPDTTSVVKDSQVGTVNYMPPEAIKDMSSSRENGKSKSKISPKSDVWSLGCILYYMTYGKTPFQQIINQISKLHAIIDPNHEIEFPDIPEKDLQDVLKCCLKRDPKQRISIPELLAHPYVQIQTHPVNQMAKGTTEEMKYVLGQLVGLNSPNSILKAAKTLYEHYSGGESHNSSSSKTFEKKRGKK

SMILES | IC50 [nM]
COc1cc(-c2cn(C)nc2C)ccc1Nc1ncc2ccnc(NCC(C)(C)C)c2n1 [Example 48, N2-(4-(1,3-dimethyl-1H-pyrazol-4-yl)-2-methoxyphenyl)-N8-neopentylpyrido[3,4-d]pyrimidine-2,8-diamine] | 5
COc1cc(-c2cnn(C)c2C)ccc1Nc1ncc2ccnc(NCC(C)(C)C)c2n1 [Example 49, N2-(4-(1,5-dimethyl-1H-pyrazol-4-yl)-2-methoxyphenyl)-N8-neopentylpyrido[3,4-d]pyrimidine-2,8-diamine] | 5
COc1cc(-c2cnn(C)c2)ccc1Nc1ncc2c(C)cnc(NCC(C)(C)C)c2n1 [Example 149, N^2-(2-methoxy-4-(1-methyl-1H-pyrazol-4-yl)phenyl)-5-methyl-N^8-neopentylpyrido[3,4-d]pyrimidine-2,8-diamine] | 34
COc1nc(-c2nnnn2C)ccc1Nc1ncc2ccnc(NCC(C)(C)OC)c2n1 [Example 161, N^8-(2-Methoxy-2-methylpropyl)-N^2-(2-methoxy-6-(1-methyl-1H-tetrazol-5-yl)pyridin-3-yl)pyrido[3,4-d]pyrimidine-2,8-diamine] | 31
